Data taken from ChEMBL document CHEMBL1201862, “PubChem BioAssay data set” (2004).
Calls of active or inactive are those of the source.

Tests used:
[1] = molecular target: Lysosomal acid glucosylceramidase (Homo sapiens, UniProt P04062); test: Dose response cell-based high throughput screening assay to identify enhancers of beta-glucosidase activity. [Related pubchem assays: 784 ]; assay type: functional
Aspartyl aminopeptidase = molecular target: T1, Aspartyl aminopeptidase (Plasmodium falciparum 3D7, UniProt Q8I2J3)
T1 sequence (Q8I2J3 whole entry): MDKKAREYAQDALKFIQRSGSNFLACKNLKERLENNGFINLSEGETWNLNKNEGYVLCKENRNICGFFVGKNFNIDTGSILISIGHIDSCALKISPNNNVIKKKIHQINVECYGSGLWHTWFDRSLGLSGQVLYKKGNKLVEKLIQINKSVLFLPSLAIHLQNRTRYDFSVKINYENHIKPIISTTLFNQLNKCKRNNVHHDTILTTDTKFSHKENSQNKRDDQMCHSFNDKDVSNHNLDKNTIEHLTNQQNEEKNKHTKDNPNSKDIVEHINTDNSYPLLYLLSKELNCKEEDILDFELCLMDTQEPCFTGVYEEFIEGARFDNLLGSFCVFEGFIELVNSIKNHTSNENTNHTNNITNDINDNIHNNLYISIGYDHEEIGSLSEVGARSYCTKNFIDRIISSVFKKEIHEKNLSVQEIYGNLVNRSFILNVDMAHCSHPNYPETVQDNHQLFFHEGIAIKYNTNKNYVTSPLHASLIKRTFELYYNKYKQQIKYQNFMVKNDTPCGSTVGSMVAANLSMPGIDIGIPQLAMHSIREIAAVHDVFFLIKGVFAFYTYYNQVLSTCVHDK

Procathepsin L = Procathepsin L (Homo sapiens, UniProt P07711)
Procathepsin L, sequence (P07711 whole entry): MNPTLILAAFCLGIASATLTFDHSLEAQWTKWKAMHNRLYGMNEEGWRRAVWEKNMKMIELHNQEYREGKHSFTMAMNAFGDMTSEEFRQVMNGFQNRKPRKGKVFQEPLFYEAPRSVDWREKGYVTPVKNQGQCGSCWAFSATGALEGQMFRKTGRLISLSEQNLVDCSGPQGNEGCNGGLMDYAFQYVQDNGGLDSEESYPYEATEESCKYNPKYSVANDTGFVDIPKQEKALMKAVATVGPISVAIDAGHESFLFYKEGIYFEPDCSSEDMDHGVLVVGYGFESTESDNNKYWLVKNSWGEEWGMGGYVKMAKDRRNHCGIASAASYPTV

Cytochrome P450 2D6 = Cytochrome P450 2D6 (Homo sapiens, UniProt P10635); test: qHTS Assay for Inhibitors and Substrates of Cytochrome P450 2D6. [Related pubchem assays: 410 ]; assay type: ADME; conditions: read-out: Potency
Cytochrome P450 2D6, sequence (P10635 whole entry): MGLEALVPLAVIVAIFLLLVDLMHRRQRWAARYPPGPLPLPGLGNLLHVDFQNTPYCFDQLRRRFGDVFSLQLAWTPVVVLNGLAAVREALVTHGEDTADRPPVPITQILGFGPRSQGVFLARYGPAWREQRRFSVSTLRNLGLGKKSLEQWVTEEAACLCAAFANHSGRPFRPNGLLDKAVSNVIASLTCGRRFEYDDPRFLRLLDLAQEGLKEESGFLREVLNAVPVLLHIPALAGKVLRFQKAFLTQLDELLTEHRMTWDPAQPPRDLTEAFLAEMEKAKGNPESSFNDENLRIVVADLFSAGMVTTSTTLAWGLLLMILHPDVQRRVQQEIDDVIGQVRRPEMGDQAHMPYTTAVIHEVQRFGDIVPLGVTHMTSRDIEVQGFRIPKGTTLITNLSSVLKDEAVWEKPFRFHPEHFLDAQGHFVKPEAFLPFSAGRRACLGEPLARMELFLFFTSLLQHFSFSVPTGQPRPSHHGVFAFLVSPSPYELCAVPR

[2] = microbe, parasite or virus in culture; assay type: functional; conditions: Mycobacterium tuberculosis
SUMO-activating enzyme [3] = molecular target: T2, SUMO-activating enzyme (Homo sapiens, UniProt Q9UBT2); test: blockers of SAE1/SAE2–UBC9 SUMO transfer – biochemical, HTRF, uHTS, primary screen (AID 2006); assay type: protein-complex assay
T2 sequence (Q9UBE0 whole entry): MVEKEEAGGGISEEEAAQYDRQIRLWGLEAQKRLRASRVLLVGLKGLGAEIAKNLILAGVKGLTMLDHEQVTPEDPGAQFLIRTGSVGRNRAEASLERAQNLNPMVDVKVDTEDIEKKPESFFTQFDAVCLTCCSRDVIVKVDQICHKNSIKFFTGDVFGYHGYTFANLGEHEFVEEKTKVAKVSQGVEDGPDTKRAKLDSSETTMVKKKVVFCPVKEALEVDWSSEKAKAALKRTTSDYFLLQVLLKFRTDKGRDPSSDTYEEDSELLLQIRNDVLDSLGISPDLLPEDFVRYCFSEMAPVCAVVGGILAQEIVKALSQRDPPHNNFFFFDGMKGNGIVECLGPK
T2 sequence (Q9UBT2 whole entry): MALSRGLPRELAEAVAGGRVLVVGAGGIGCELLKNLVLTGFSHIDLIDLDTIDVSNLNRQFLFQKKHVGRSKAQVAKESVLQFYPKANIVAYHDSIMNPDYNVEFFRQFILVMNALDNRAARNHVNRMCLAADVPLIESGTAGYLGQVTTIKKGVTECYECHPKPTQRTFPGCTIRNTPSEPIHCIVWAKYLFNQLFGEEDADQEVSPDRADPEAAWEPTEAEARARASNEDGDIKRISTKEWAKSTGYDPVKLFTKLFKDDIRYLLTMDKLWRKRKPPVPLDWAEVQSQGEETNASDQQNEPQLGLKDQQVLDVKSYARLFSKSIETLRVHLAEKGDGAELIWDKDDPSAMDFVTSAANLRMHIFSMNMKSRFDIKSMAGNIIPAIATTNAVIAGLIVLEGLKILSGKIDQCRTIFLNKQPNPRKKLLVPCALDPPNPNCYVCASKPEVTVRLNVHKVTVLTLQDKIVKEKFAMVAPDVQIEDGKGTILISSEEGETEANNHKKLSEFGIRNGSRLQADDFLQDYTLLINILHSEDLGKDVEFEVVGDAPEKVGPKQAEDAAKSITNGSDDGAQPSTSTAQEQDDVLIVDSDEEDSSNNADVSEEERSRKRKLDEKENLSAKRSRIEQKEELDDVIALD

Hexokinase HKDC1 = molecular target: T3, Hexokinase HKDC1 (Homo sapiens, UniProt Q2TB90); test: inhibition of HKDC1 glucose phosphorylation – biochemical, W721R variant, dose response (AID 504729); assay type: functional
T3 sequence (Q2TB90 whole entry): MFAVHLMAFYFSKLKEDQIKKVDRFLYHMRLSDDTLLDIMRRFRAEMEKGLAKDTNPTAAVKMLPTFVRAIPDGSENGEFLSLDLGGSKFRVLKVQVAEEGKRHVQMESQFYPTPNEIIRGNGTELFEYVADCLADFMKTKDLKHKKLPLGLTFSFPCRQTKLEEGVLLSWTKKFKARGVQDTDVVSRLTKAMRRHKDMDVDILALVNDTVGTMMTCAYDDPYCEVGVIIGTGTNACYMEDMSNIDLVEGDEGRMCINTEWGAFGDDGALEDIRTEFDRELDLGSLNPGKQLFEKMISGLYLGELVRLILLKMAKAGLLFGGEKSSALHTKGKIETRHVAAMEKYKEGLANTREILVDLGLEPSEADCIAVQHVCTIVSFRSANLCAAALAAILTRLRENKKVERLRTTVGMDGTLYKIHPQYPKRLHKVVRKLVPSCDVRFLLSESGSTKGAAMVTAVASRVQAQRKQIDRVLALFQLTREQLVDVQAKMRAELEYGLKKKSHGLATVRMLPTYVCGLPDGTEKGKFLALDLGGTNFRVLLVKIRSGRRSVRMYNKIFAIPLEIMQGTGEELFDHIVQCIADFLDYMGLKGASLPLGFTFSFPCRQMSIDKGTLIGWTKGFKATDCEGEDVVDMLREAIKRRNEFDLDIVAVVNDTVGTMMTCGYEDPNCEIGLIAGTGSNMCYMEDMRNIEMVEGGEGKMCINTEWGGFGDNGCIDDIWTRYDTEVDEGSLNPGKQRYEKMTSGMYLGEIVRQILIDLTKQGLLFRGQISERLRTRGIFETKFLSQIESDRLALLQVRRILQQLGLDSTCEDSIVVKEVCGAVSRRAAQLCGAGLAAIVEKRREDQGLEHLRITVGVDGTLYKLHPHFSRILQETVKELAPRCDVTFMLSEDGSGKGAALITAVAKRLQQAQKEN

[4] = viability of uninfected HEp-2 cells – cell-based, HTS, cytotoxicity control for RSV inhibitor project, dose response (AID 2410); assay type: functional; conditions: human respiratory syncytial virus
[5] = molecular target: E3 ubiquitin-protein ligase Mdm2 (Homo sapiens, UniProt Q00987); test: MDM2-luc reporter signal enhancers, multi-concentration potency testing, MDM2 ubiquitin-protein ligase inhibitor program, whole-cell format, luminescence detection, 384-well microplate (AID 1394); assay type: functional;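 further: MDM2 E3 inhibitors raise luminescence so EC50 is for signal enhancement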
E3 ubiquitin-protein ligase Mdm2, sequence (Q00987 whole entry): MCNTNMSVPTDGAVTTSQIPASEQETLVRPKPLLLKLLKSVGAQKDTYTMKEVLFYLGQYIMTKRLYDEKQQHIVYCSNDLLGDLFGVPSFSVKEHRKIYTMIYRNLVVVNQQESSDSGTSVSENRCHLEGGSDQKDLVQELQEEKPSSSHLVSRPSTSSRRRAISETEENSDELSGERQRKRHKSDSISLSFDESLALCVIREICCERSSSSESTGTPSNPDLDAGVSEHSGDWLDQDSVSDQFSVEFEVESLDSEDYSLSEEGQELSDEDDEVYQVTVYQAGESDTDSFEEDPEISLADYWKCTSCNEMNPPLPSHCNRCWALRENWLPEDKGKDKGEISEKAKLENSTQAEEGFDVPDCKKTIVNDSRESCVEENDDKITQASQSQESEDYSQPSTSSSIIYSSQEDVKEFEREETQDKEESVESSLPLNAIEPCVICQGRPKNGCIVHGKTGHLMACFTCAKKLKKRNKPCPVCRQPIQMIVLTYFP

SUMO-activating enzyme [6] = molecular target: T2, SUMO-activating enzyme; test: blockers of UBC9-mediated SUMO conjugation – biochemical, AlphaScreen, SUMOylation inhibitor project, confirmation (AID 2018); assay type: functional

Lysosomal acid glucosylceramidase, sequence (P04062 whole entry): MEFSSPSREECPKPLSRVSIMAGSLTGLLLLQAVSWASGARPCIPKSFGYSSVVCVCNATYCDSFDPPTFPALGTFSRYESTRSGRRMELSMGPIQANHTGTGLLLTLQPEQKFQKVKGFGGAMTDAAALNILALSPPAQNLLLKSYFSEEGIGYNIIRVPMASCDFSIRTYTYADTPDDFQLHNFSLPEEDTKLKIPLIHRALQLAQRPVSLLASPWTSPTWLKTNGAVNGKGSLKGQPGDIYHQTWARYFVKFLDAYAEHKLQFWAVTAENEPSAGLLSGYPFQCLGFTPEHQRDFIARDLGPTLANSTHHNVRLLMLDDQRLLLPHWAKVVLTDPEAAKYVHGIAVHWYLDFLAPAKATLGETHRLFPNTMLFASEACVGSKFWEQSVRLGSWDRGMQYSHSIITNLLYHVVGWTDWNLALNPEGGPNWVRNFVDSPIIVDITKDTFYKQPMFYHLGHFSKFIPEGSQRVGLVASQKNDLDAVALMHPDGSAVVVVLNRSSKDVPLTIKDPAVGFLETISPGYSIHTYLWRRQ

CCCCNC(=O)C1CCCN1C(=O)Nc1cccc(OC)c1 (stereo not given)
EC50 [1]: > 50 µM (not active)

CN1C(=O)N(c2cccc3ccccc23)C(n2cncn2)C1(C)C (stereo not given)
IC50 (Aspartyl aminopeptidase): 1.8 µM (active)
IC50 (Procathepsin L): > 59.6 µM (not active)

C=C(C)C(O)C(CC/C=C(\C)C(=O)OCC)OC (stereo not given)
AC50 (Cytochrome P450 2D6): 3.16 µM (inconclusive)

COc1cc(NC(=O)c2cnc(N)s2)cc(C(=O)Nc2cccc(C(F)(F)F)c2)c1
CC50 [2]: > 40 µM (active)
IC50 (SUMO-activating enzyme [3]): 34.5 µM (active)
IC50 (Hexokinase HKDC1): 10.5 µM (active)
CC50 [4]: 23.6 µM (active)
EC50 [5]: 22.9 µM (not active)
IC50 (SUMO-activating enzyme [6]): 10.8 µM (active)
